Assay results published in patent publication US11524966B1 (Valo Early Discovery, Inc., priority 2017, dated 2022).

Molecular target: T1, USP28 (His-tagged USP28-FL-mammalian) (Homo sapiens, UniProt Q96RU2)
T1 construct: Expression of USP28 (1-1077)-TEV-6*His (pTT5 vector); made in house; host or cells: Expi293f cells (pTT5 vector)
T1 sequence (Q96RU2 1-1077): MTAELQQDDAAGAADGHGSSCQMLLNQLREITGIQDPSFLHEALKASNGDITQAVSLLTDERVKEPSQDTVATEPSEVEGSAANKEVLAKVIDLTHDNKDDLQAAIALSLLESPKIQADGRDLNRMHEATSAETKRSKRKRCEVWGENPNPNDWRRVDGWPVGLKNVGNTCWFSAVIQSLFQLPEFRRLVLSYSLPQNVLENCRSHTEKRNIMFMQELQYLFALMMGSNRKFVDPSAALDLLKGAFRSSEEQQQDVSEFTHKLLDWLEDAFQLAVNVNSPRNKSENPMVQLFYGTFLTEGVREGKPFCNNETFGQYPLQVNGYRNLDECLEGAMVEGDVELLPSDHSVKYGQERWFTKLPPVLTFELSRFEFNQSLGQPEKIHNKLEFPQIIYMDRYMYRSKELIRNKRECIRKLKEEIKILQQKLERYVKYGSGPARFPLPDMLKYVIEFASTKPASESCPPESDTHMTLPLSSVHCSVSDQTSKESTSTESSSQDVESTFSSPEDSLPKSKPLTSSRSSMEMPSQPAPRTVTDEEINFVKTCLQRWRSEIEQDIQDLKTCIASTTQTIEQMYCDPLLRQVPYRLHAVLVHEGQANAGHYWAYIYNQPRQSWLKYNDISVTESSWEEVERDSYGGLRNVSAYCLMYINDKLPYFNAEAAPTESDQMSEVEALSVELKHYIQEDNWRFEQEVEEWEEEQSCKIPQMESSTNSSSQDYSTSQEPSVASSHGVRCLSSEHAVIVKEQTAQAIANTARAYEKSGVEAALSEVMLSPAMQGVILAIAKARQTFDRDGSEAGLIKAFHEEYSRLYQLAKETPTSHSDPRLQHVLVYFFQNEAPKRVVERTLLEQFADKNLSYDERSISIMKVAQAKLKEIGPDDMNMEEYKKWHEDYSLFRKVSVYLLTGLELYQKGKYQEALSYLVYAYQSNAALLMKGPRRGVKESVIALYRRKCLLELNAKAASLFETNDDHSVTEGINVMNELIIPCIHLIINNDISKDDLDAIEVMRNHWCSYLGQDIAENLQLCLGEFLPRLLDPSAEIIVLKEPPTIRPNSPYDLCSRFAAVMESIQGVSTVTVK
Assay: Ubiquitin-Rhodamine 110 Assay for USP28 Activity, Example A-1(a)
Format: biochemical
Conditions: Ubiquitin-Rhodamine 110 assay, Example A-1(a); read-out: USP28 A-1(a) IC50 range
Description: Example A-1(a): Biochemical Assay: Ubiquitin-Rhodamine 110 Assay for USP28 Activity
The assay was performed in a final volume of 9 μL in assay buffer containing 20 mM Tris-HCl (pH 8.0, (1M Tris-HCl, pH 8.0 solution; Corning 46-031-CM)), 3 mM BME (2-Mercaptoethanol; Sigma 63689-25ML-F), 0.03% BGG (0.22 μM filtered, Sigma, G7516-25G), and 0.01% Triton X-100 (Sigma, T9284-10L). Nanoliter quantities of 10-point, 3-fold serial dilution in DMSO was pre-dispensed into 1536 assay plates (Corning, #3724BC) for a final test concentration of 25 μM to 1.3 nM, top to lowest dose, respectively. Enzyme USP28, construct His-tagged USP28-FL-mammalian, (protein expression and purification procedure described below). Concentration and incubation times were optimized for the maximal signal-to-background while maintaining initial velocity conditions at a fixed substrate concentration. The final concentration of the enzyme in the assay was 75 μM. Final substrate (Ub-Rh110; Ubiquitin-Rhodamine 110, UbiQ-126) concentration was 25 nM with [Ub-Rh110]<<Km. 3 μL of 2× enzyme was added to assay plates (pre-stamped with compound) preincubated with […] for 30 minutes and then 3 μL of 2×Ub-Rh110 was added to assay plates. Plates were incubated for 45 minutes at room temperature before addition of 3 μL of stop solution (final concentration of 10 mM citric acid (Sigma, 251275-500G)). Fluorescence was read on the Envision (Excitation at 485 nm and Emission at 535 nm; Perkin Elmer) or on the PheraSTAR (Excitation at 485 nm and Emission at 535 nm; BMG Labtech).
Procedure for the Protein Expression and Purification for Construct His-Tagged USP28-FL-Mammalian
Expression of USP28 (1-1077)-TEV-6*His (pTT5 vector) was carried out in Expi293f cells (sequence derived from uniprot ID: Q96RU2-1). Cells were re-suspended in lysis buffer B 50 mM Bicine, pH 8.0, 20 mM NaCl, 5% glycerol, 0.1% CHAPS, 5 mM β-ME, 1 mM PMSF, 1 ug/ml Leupeptin, 1 ug/ml Pepstatin) and lysed by sonication. Insoluble material was removed by centrifugation and the supernatant was loaded onto a Ni-NTA column (GE Healthcare) equilibrated with Ni Buffer A (50 mM Bicine, pH 8.0, 20 mM NaCl, 5% glycerol, 0.1% CHAPS, 5 mM β-ME.) and washed with Ni Buffer A+20 mM imidazole until A280 reached baseline. The protein was eluted with Ni Buffer B (50 mM Bicine, pH 8.0, 20 mM NaCl, 5% glycerol, 0.1% CHAPS, 5 mM β-ME, 300 mM imidazole.). The protein was further purified using a Superdex™ 200 10/300 GL column (GE Healthcare) equilibrated with 50 mM Bicine, pH 8.0, 20 mM NaCl, 5% glycerol, 0.1% CHAPS, 5 mM β-ME. The protein was concentrated to 2.5 mg ml^−1, flash-frozen in liquid N2 and stored at −80° C.
For assay formats Example A-1(a), A-1(b), and A-2, data were reported as percent inhibition compared with control wells based on the following equation: % inh=1−((FLU−AveLow)/(AveHigh−AveLow)) where FLU=measured Fluorescence, AveLow=average Fluorescence of no enzyme control (n=16), and AveHigh=average Fluorescence of DMSO control (n=16). IC50 values were determined by curve fitting of the standard 4 parameter logistic fitting algorithm included in the Activity Base software package: IDBS XE Designer Model 205. Data is fitted using the Levenburg Marquardt algorithm.

**Q.** `CN[C@H]1CN(c2ccc3c(n2)CC[C@H](NC(=O)c2sc4nc(C)ccc4c2N)C3)C[C@@H]1COC` (single isomer, unassigned) [Example 26-1] was tested. Which IC50 did it give?
**A.** Its IC50 is 50 to 200 nM.

**Q.** With `CN[C@@H]1CN(c2ccc3c(n2)CC[C@H](NC(=O)c2sc4nc(C)ccc4c2N)C3)C[C@H]1COC` (single isomer, unassigned) [Example 26-2] as the compound, how does the IC50 read?
**A.** Its IC50 is 50 to 200 nM.

**Q.** For `Cc1ccc2c(N)c(C(=O)N[C@H]3CCc4nc(N5C[C@@H](CF)[C@@H](N)C5)ccc4C3)sc2n1` (single isomer, unassigned) [Example 27-1], which IC50 is on record?
**A.** The IC50 was 50 to 200 nM.

**Q.** How did the IC50 turn out when `Cc1ccc2c(N)c(C(=O)N[C@H]3CCc4nc(N5C[C@H](CF)[C@H](N)C5)ccc4C3)sc2n1` (single isomer, unassigned) [Example 27-2] was run?
**A.** The IC50 was 50 to 200 nM.

**Q.** Which IC50 does the source give for `COCCO[C@H]1CN(c2ccc3c(n2)CC[C@H](NC(=O)c2sc4nc(C)ccc4c2N)C3)C[C@@H]1N` (single isomer, unassigned) [Example 28-1] here?
**A.** The IC50 was 200 to 2000 nM.

**Q.** Which IC50 does the source give for `COCCO[C@@H]1CN(c2ccc3c(n2)CC[C@H](NC(=O)c2sc4nc(C)ccc4c2N)C3)C[C@H]1N` (single isomer, unassigned) [Example 28-2] here?
**A.** Its IC50 is 200 to 2000 nM.

**Q.** For `Cc1ccc2c(N)c(C(=O)N[C@H]3CCc4nc(N5C[C@H](N)C6(C5)OCCO6)ccc4C3)sc2n1` (single isomer, unassigned) [Example 29-1], which IC50 is on record?
**A.** The IC50 was 200 to 2000 nM.

**Q.** `Cc1ccc2c(N)c(C(=O)N[C@H]3CCc4nc(N5C[C@@H](N)C6(C5)OCCO6)ccc4C3)sc2n1` (single isomer, unassigned) [Example 29-2] was tested. Which IC50 did it give?
**A.** Its IC50 is 200 to 2000 nM.

**Q.** How did the IC50 turn out when `Cc1cc(C)c2c(N)c(C(=O)N[C@H]3CCc4nc(N5C[C@H](OC(C)C)[C@@H](N)C5)ncc4C3)sc2n1` (single isomer, unassigned) [Example 31-1] was run?
**A.** Its IC50 is 50 to 200 nM.

**Q.** `Cc1cc(C)c2c(N)c(C(=O)N[C@@H]3CCc4nc(N5C[C@H](OC(C)C)[C@@H](N)C5)ncc4C3)sc2n1` (single isomer, unassigned) [Example 31-2] was tested. Which IC50 did it give?
**A.** Its IC50 is > 2000 nM.

**Q.** How did the IC50 turn out when `Cc1ccc2c(N)c(C(=O)N[C@H]3CCc4cc(N5CCNCC5)ncc4C3)sc2n1` (single isomer, unassigned) [Example 32-1] was run?
**A.** Its IC50 is 50 to 200 nM.

**Q.** For `Cc1ccc2c(N)c(C(=O)N[C@@H]3CCc4cc(N5CCNCC5)ncc4C3)sc2n1` (single isomer, unassigned) [Example 32-2], which IC50 is on record?
**A.** The IC50 was 200 to 2000 nM.

**Q.** With `Cc1ccc2c(N)c(C(=O)N(C)[C@@H]3COc4cc(N5CCNCC5)cc(F)c4C3)sc2n1` [Example 10-16, 3-amino-N-[(3S)-5-fluoro-7-(piperazin-1-yl)-3,4-dihydro-2H-1-benzopyran-3-yl]-N,6-dimethylthieno[2,3-b]pyridine-2-carboxamide] as the compound, how does the IC50 read?
**A.** Its IC50 is > 2000 nM.

**Q.** Which IC50 does the source give for `Cc1ccc2c(N)c(C(=O)N[C@H]3COc4cc(N5CC6CNCC(C5)C6(F)F)ncc4C3)sc2n1` [Example 114, 3-amino-N-[(3R)-7-{9,9-difluoro-3,7-diazabicyclo[3.3.1]nonan-3-yl}-2H,3H,4H-pyrano[3,2-c]pyridin-3-yl]-6-methylthieno[2,3-b]pyridine-2-carboxamide] here?
**A.** The IC50 was 1 to 50 nM.

**Q.** With `CO[C@H]1CN(c2cc3c(cn2)C[C@@H](NC(=O)c2sc4nc(C)ccc4c2N)CO3)C[C@@H]1N` [Example 179, 3-amino-N-[(3R)-7-[(3S,4S)-3-amino-4-methoxypyrrolidin-1-yl]-2H,3H,4H-pyrano[3,2-c]pyridin-3-yl]-6-methylthieno[2,3-b]pyridine-2-carboxamide] as the compound, how does the IC50 read?
**A.** The IC50 was 1 to 50 nM.

**Q.** With `CCO[C@H]1CN(c2cc3c(cn2)C[C@@H](NC(=O)c2sc4nc(C)ccc4c2N)CO3)C[C@@H]1N` [Example 180, 3-amino-N-[(3R)-7-[(3S,4S)-3-amino-4-ethoxypyrrolidin-1-yl]-2H,3H,4H-pyrano[3,2-c]pyridin-3-yl]-6-methylthieno[2,3-b]pyridine-2-carboxamide] as the compound, how does the IC50 read?
**A.** Its IC50 is 1 to 50 nM.

**Q.** How did the IC50 turn out when `CO[C@H]1CN(c2ncc3c(n2)CC[C@H](NC(=O)c2sc4nc(C)ccc4c2N)C3)C[C@@H]1N` [Example 186, 3-amino-N-[(6S)-2-[(3S,4S)-3-amino-4-methoxypyrrolidin-1-yl]-5,6,7,8-tetrahydroquinazolin-6-yl]-6-methylthieno[2,3-b]pyridine-2-carboxamide] was run?
**A.** The IC50 was > 2000 nM.

**Q.** Which IC50 does the source give for `CO[C@H]1CN(c2ncc3c(n2)CC[C@@H](NC(=O)c2sc4nc(C)ccc4c2N)C3)C[C@@H]1N` [Example 187, 3-amino-N-[(6R)-2-[(3S,4S)-3-amino-4-methoxypyrrolidin-1-yl]-5,6,7,8-tetrahydroquinazolin-6-yl]-6-methylthieno[2,3-b]pyridine-2-carboxamide] here?
**A.** Its IC50 is 200 to 2000 nM.

**Q.** With `Cc1ccc2c(N)c(C(=O)N[C@H]3CCc4nc(N5C[C@H](OC(C)C)[C@@H](N)C5)ncc4C3)sc2n1` [Example 271, 3-amino-N-[(6S)-2-[(3S,4S)-3-amino-4-(propan-2-yloxy)pyrrolidin-1-yl]-5,6,7,8-tetrahydroquinazolin-6-yl]-6-methylthieno[2,3-b]pyridine-2-carboxamide] as the compound, how does the IC50 read?
**A.** Its IC50 is > 2000 nM.

**Q.** Which IC50 does the source give for `Cc1ccc2c(N)c(C(=O)N[C@@H]3CCc4nc(N5C[C@H](OC(C)C)[C@@H](N)C5)ncc4C3)sc2n1` [Example 272, 3-amino-N-[(6R)-2-[(3S,4S)-3-amino-4-(propan-2-yloxy)pyrrolidin-1-yl]-5,6,7,8-tetrahydroquinazolin-6-yl]-6-methylthieno[2,3-b]pyridine-2-carboxamide] here?
**A.** The IC50 was 200 to 2000 nM.

**Q.** Which IC50 does the source give for `CO[C@H]1CN(c2ncc3c(n2)CC[C@H](NC(=O)c2sc4nc(C)cc(C)c4c2N)C3)C[C@@H]1N` [Example 273, 3-amino-N-[(6S)-2-[(3S,4S)-3-amino-4-methoxypyrrolidin-1-yl]-5,6,7,8-tetrahydroquinazolin-6-yl]-4,6-dimethylthieno[2,3-b]pyridine-2-carboxamide] here?
**A.** Its IC50 is > 2000 nM.

**Q.** For `CO[C@H]1CN(c2ncc3c(n2)CC[C@@H](NC(=O)c2sc4nc(C)cc(C)c4c2N)C3)C[C@@H]1N` [Example 274, 3-amino-N-[(6R)-2-[(3S,4S)-3-amino-4-methoxypyrrolidin-1-yl]-5,6,7,8-tetrahydroquinazolin-6-yl]-4,6-dimethylthieno[2,3-b]pyridine-2-carboxamide], which IC50 is on record?
**A.** The IC50 was 200 to 2000 nM.
